# Reference: PubChem BioAssay (NCI)
#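 At the GI50, growth is halved. TGI: concentration producing complete growth inhibition.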
# Key:
# Test in all cases: growth of human tumour cells (NCI), 384-well format
# [1] = system: RXF 393 renal
# [2] = system: A498 renal
# [3] = system: SN12C renal
# [4] = system: EKVX NSCLC
# [5] = system: U251 glioblastoma
# [6] = system: IGROV1 ovarian
# [7] = system: SK-MEL-2 melanoma
# [8] = system: KM12 colon
# [9] = system: LOX IMVI melanoma
# [10] = system: NCI-H460 NSCLC
# [11] = system: MDA-MB-435 melanoma
# [12] = system: SW-620 colon
# [13] = system: OVCAR-3 ovarian
# [14] = system: UO-31 renal
# [15] = system: MOLT-4 leukemia
# [16] = system: MALME-3M melanoma
# [17] = system: HL-60(TB) leukemia
# [18] = system: TK-10 renal
# [19] = system: T-47D breast
# [20] = system: DU-145 prostate
# [21] = system: A549 NSCLC
# [22] = system: MCF7 breast
# [23] = system: BT-549 breast
# [24] = system: NCI-H226 lung
# [25] = system: HT29 colon
# [26] = system: OVCAR-4 ovarian
# [27] = system: NCI-H322M lung
# [28] = system: SNB-75 CNS
# [29] = system: OVCAR-5 ovarian
# [30] = system: NCI/ADR-RES ovarian
# [31] = system: HOP-92 NSCLC
# [32] = system: COLO 205 colon
# [33] = system: HS 578T breast
# [34] = system: HCT-15 colon
# [35] = system: K-562 leukemia
# [36] = system: SF-268 CNS
# [37] = system: SF-295 CNS
# [38] = system: NCI-H23 lung
# [39] = system: M14 melanoma
# [40] = system: SK-MEL-28 melanoma
# [41] = system: HCC-2998 colon
# [42] = system: SK-MEL-5 melanoma
# [43] = system: UACC-257 melanoma
# [44] = system: CCRF-CEM leukemia
# [45] = system: OVCAR-8 ovarian
# [46] = system: MDA-MB-468 breast
# [47] = system: PC-3 prostate
smiles,measurement,setting,value
FC(F)(F)c1ccc(CNc2ccc(Cc3c[nH]c4ncc(Cl)cc34)cn2)cn1,GI50,[1],4.54 µM
same,TGI,[1],14.7 µM
same,GI50,[2],7.91 µM
same,TGI,[2],19.1 µM
same,GI50,[3],14 µM
same,TGI,[3],27.1 µM
same,GI50,[4],10.7 µM
same,TGI,[4],23.7 µM
same,GI50,[5],14.2 µM
same,TGI,[5],27.5 µM
same,GI50,[6],13.5 µM
same,TGI,[6],27.8 µM
same,GI50,[7],7.92 µM
same,TGI,[7],20.4 µM
same,GI50,[8],4.46 µM
same,TGI,[8],14.2 µM
same,GI50,[9],14.4 µM
same,TGI,[9],27.7 µM
same,GI50,[10],12.9 µM
same,TGI,[10],26.1 µM
same,GI50,[11],16.2 µM
same,TGI,[11],30.1 µM
same,GI50,[12],15.1 µM
same,TGI,[12],28.8 µM
same,GI50,[13],15.7 µM
same,TGI,[13],29.8 µM
same,GI50,[14],11.6 µM
same,TGI,[14],23.9 µM
same,GI50,[15],2.83 µM
same,TGI,[15],9.58 µM
same,GI50,[16],8.2 µM
same,TGI,[16],17.4 µM
same,GI50,[17],6.17 µM
same,TGI,[17],16.3 µM
same,GI50,[18],14.4 µM
same,TGI,[18],28.6 µM
same,GI50,[19],4.85 µM
same,TGI,[19],16.1 µM
same,GI50,[20],15.4 µM
same,TGI,[20],29.1 µM
same,GI50,[21],13.1 µM
same,TGI,[21],26.2 µM
same,GI50,[22],12.5 µM
same,TGI,[22],25.3 µM
same,GI50,[23],12.2 µM
same,TGI,[23],25.5 µM
same,GI50,[24],5.32 µM
same,TGI,[24],16.3 µM
same,GI50,[25],9.79 µM
same,TGI,[25],23 µM
same,GI50,[26],9.12 µM
same,TGI,[26],22.2 µM
same,GI50,[27],8.81 µM
same,TGI,[27],21.6 µM
same,GI50,[28],2.73 µM
same,TGI,[28],8.45 µM
same,GI50,[29],15.7 µM
same,TGI,[29],29.6 µM
same,GI50,[30],9.91 µM
same,TGI,[30],21.9 µM
same,GI50,[31],8.41 µM
same,TGI,[31],21.3 µM
same,GI50,[32],14.9 µM
same,TGI,[32],28.4 µM
same,GI50,[33],2.15 µM
same,TGI,[33],7.11 µM
same,GI50,[34],11.4 µM
same,TGI,[34],23.9 µM
same,GI50,[35],5.09 µM
same,TGI,[35],17.2 µM
same,GI50,[36],8.91 µM
same,TGI,[36],21.7 µM
same,GI50,[37],11.3 µM
same,TGI,[37],23.7 µM
same,GI50,[38],11 µM
same,TGI,[38],23 µM
same,GI50,[39],13.3 µM
same,TGI,[39],26.2 µM
same,GI50,[40],9 µM
same,TGI,[40],21.7 µM
same,GI50,[41],13.8 µM
same,TGI,[41],26.9 µM
same,GI50,[42],6.22 µM
same,TGI,[42],18.3 µM
same,GI50,[43],12.4 µM
same,TGI,[43],25.9 µM
same,GI50,[44],6.19 µM
same,TGI,[44],17.9 µM
same,GI50,[45],10.3 µM
same,TGI,[45],23.1 µM
same,GI50,[46],2.82 µM
same,TGI,[46],9.15 µM
same,GI50,[47],12.7 µM
same,TGI,[47],25.7 µM
